Assays:
[1] = test system: Rattus norvegicus; experiment: Oral antiallergic activity in rat passive foot anaphylaxis (PFA) assay as percent change in volume of foot edema at a dose 31.6 mg/kg compared to -61% of aminophylline at 100 mg/kg; type: functional
[2] = test system: Rattus norvegicus; experiment: Oral antiallergic activity in rat passive foot anaphylaxis (PFA) assay as percent change in volume of foot edema at a dose 31.6 mg/kg compared to -66% of aminophylline at 100 mg/kg; type: functional
[3] = test system: Rattus norvegicus; experiment: Oral antiallergic activity in rat passive foot anaphylaxis (PFA) assay as percent change in volume of foot edema at a dose 31.6 mg/kg compared to -74% of aminophylline at 100 mg/kg; type: functional
[4] = test system: Rattus norvegicus; experiment: Oral antiallergic activity in rat passive foot anaphylaxis (PFA) assay as percent change in volume of foot edema at a dose 31.6 mg/kg compared to -63% of aminophylline at 100 mg/kg; type: functional
[5] = test system: Rattus norvegicus; experiment: Oral antiallergic activity in rat passive foot anaphylaxis (PFA) assay as percent change in volume of foot edema at a dose 31.6 mg/kg compared to -71% of aminophylline at 100 mg/kg; type: functional
[6] = test system: Rattus norvegicus; experiment: Oral antiallergic activity in rat passive foot anaphylaxis (PFA) assay as percent change in volume of foot edema at a dose 31.6 mg/kg compared to -69% of aminophylline at 100 mg/kg; type: functional
[7] = test system: Rattus norvegicus; experiment: Oral antiallergic activity in rat passive foot anaphylaxis (PFA) assay as percent change in volume of foot edema at a dose 31.6 mg/kg compared to -68% of aminophylline at 100 mg/kg; type: functional
[8] = test system: Rattus norvegicus; experiment: Oral antiallergic activity in rat passive foot anaphylaxis (PFA) assay as percent change in volume of foot edema at a dose 31.6 mg/kg compared to -62% of aminophylline at 100 mg/kg; type: functional
[9] = test system: Rattus norvegicus; experiment: Oral antiallergic activity in rat passive foot anaphylaxis (PFA) assay as percent change in volume of foot edema at a dose 31.6 mg/kg compared to -65% of aminophylline at 100 mg/kg; type: functional
[10] = test system: Rattus norvegicus; experiment: Oral antiallergic activity in rat passive foot anaphylaxis (PFA) assay as percent change in volume of foot edema at a dose 10 mg/kg compared to -62% of aminophylline at 100 mg/kg; type: functional
[11] = test system: Cavia porcellus; experiment: Oral antiallergic activity in the Guinea Pig Anaphylaxis (GPA) at the dose of 31.6 mg/kg; 4 guinea pigs were challenged with the antigen
[12] = test system: Rattus norvegicus; experiment: Oral antiallergic activity in rat passive foot anaphylaxis (PFA) assay as percent change in volume of foot edema at a dose 10 mg/kg compared to -69% of aminophylline at 100 mg/kg; type: functional
[13] = test system: Rattus norvegicus; experiment: Oral antiallergic activity in rat passive foot anaphylaxis (PFA) assay as percent change in volume of foot edema at a dose 31.6 mg/kg compared to -78% of aminophylline at 100 mg/kg; type: functional
[14] = test system: Rattus norvegicus; experiment: Oral antiallergic activity in rat passive foot anaphylaxis (PFA) assay as percent change in volume of foot edema at a dose 31.6 mg/kg compared to -64% of aminophylline at 100 mg/kg; type: functional
[15] = test system: Rattus norvegicus; experiment: Oral antiallergic activity in rat passive foot anaphylaxis (PFA) assay as percent change in volume of foot edema at a dose 31.6 mg/kg compared to -73% of aminophylline at 100 mg/kg; type: functional
[16] = test system: Cavia porcellus; experiment: Oral antiallergic activity in the Guinea Pig Anaphylaxis (GPA) at the dose of 200 mg/kg; 3 guinea pigs were challenged with the antigen; type: functional
[17] = test system: Rattus norvegicus; experiment: Oral antiallergic activity in rat passive foot anaphylaxis (PFA) assay as percent change in volume of foot edema at a dose 31.6 mg/kg compared to -67% of aminophylline at 100 mg/kg; type: functional
[18] = test system: Rattus norvegicus; experiment: Oral antiallergic activity in rat passive foot anaphylaxis (PFA) assay as percent change in volume of foot edema at a dose 10 mg/kg compared to -77% of aminophylline at 100 mg/kg; type: functional
[19] = test system: Rattus norvegicus; experiment: Oral antiallergic activity in rat passive foot anaphylaxis (PFA) assay as percent change in volume of foot edema at a dose 31.6 mg/kg compared to -76% of aminophylline at 100 mg/kg; type: functional
[20] = test system: Rattus norvegicus; experiment: Oral antiallergic activity in rat passive foot anaphylaxis (PFA) assay as percent change in volume of foot edema at a dose 10 mg/kg compared to -76% of aminophylline at 100 mg/kg; type: functional
[21] = test system: Cavia porcellus; experiment: Oral antiallergic activity in the Guinea Pig Anaphylaxis (GPA) at the dose of 10 mg/kg; 4 guinea pigs were challenged with the antigen
[22] = test system: Rattus norvegicus; experiment: Oral antiallergic activity in rat passive foot anaphylaxis (PFA) assay as percent change in volume of foot edema at a dose 3.16 mg/kg compared to -84% of aminophylline at 100 mg/kg
[23] = test system: Rattus norvegicus; experiment: Oral antiallergic activity in rat passive foot anaphylaxis (PFA) assay as percent change in volume of foot edema at a dose 31.6 mg/kg compared to -50% of aminophylline at 100 mg/kg; type: functional
[24] = test system: Rattus norvegicus; experiment: Oral antiallergic activity in rat passive foot anaphylaxis (PFA) assay as percent change in volume of foot edema at a dose 31.6 mg/kg compared to -79% of aminophylline at 100 mg/kg; type: functional
[25] = test system: Cavia porcellus; experiment: Oral antiallergic activity in the Guinea Pig Anaphylaxis (GPA) at the dose of 31.6 mg/kg; 6 guinea pigs were challenged with the antigen; type: functional
[26] = test system: Rattus norvegicus; experiment: Oral antiallergic activity in rat passive foot anaphylaxis (PFA) assay as percent change in volume of foot edema at a dose 31.6 mg/kg compared to -80% of aminophylline at 100 mg/kg; type: functional
[27] = test system: Rattus norvegicus; experiment: Oral antiallergic activity in rat passive foot anaphylaxis (PFA) assay as percent change in volume of foot edema at a dose 31.6 mg/kg compared to -77% of aminophylline at 100 mg/kg; type: functional
[28] = test system: Rattus norvegicus; experiment: Oral antiallergic activity in rat passive foot anaphylaxis (PFA) assay as percent change in volume of foot edema at a dose 31.6 mg/kg compared to -90% of aminophylline at 100 mg/kg; type: functional
[29] = test system: Rattus norvegicus; experiment: Oral antiallergic activity in rat passive foot anaphylaxis (PFA) assay as percent change in volume of foot edema at a dose 31.6 mg/kg compared to -60% of aminophylline at 100 mg/kg; type: functional
[30] = test system: Rattus norvegicus; experiment: Oral antiallergic activity in rat passive foot anaphylaxis (PFA) assay as percent change in volume of foot edema at a dose 31.6 mg/kg compared to -81% of aminophylline at 100 mg/kg; type: functional
[31] = test system: Rattus norvegicus; experiment: Oral antiallergic activity in rat passive foot anaphylaxis (PFA) assay as percent change in volume of foot edema at a dose 31.6 mg/kg compared to -58% of aminophylline at 100 mg/kg; type: functional

CN(C)CCNC(=O)N1CCN(c2ccc(Br)cc2)CC1
Change [1]: -31%

CN(C)CCNC(=O)N1CCN(C(c2ccccc2)c2ccccc2)CC1
Change [2]: -30%

CC(=O)Nc1ccc(N2CCN(C(=O)NCCN(C)C)CC2)cc1
Change [3]: 5%

CN1CCN(CCNC(=O)N2CCN(c3ccccc3)CC2)CC1
Change [4]: -7%

CC(=O)c1ccc(N2CCN(C(=O)NCCN(C)C)CC2)cc1
Change [5]: -25%

O=C(N1CCN(c2ccccc2)CC1)N1CCN(c2ccccc2)CC1
Change [6]: -10%

COc1ccc(N2CCN(C(=O)NCCN(C)C)CC2)cc1OC
Change [4]: -16%

CN1CCN(C(=O)N2CCN(c3ccccc3)CC2)CC1
Change [7]: -7%

O=C(NCCN1CCCCC1)N1CCN(c2ccccc2)CC1
Change [7]: -49%

COc1cc(N2CCN(C(=O)NCCN(C)C)CC2)cc(OC)c1OC
Change [8]: 9%

CN(C)CCNC(=O)N1CCN(c2ccc(Cl)cc2)CC1
Change [8]: 27%
Change [9]: -61%
Change [10]: -48%
No. of guinea pigs protected [11]: 0

NC(=O)N1CCN(c2ccccc2)CC1
Change [3]: 10%

COc1ccc(N2CCN(C(=O)NCCN(C)C)CC2)cc1
Change [9]: -49%
Change [12]: -29%

CN(CCNC(=O)N1CCN(c2ccccc2)CC1)c1ccccc1
Change [4]: -41%

O=C(NCCN1CCOCC1)N1CCN(c2ccccc2)CC1
Change [3]: 10%

CCOC(=O)c1ccc(N2CCN(C(=O)NCCN(C)C)CC2)cc1
Change [13]: -5%

CN(C)CCNC(=O)N1CCN(c2cccc(F)c2)CC1
Change [14]: -31%

CN(C)CCNC(=O)N1CCN(C(=O)c2ccccc2)CC1
Change [5]: -4%

O=C(NCCc1ccccn1)N1CCN(c2ccccc2)CC1
Change [3]: -3%

CN(C)CCNC(=O)N1CCN(c2cccc(C(F)(F)F)c2)CC1
Change [1]: -18%

CN(C)CCNC(=O)N1CCN(Cc2ccccc2)CC1
Change [15]: -10%

O=C(NCCN1CCCC1)N1CCN(c2ccccc2)CC1
Change [7]: -45%

CCN(CC)C(=O)N1CCN(C)CC1 [DIETHYLCARBAMAZINE]
No. of guinea pigs protected [16]: 0

CN(C)CCNC(=O)N1CCN(c2cccc(Cl)c2)CC1
Change [17]: -78%
Change [18]: -32%

CN(C)CCOC(c1ccccc1)c1ccccc1 [DIPHENHYDRAMINE]
No. of guinea pigs protected [11]: 1

O=C(NCCN1CCCCCC1)N1CCN(c2ccccc2)CC1
Change [19]: -47%

CN(C)CCNC(=O)N1CCN(c2ccc(F)cc2)CC1
Change [17]: -87%
Change [20]: -63%
No. of guinea pigs protected [21]: 1
Change [22]: -35%

CN(C)CCNC(=O)N1CCN(c2ccc(Cl)c(Cl)c2)CC1
Change [23]: -17%

CN(C)CCNC(=O)N(C)CCN(C)c1ccccc1
Change [24]: -23%

Cn1c(=O)c2[nH]cnc2n(C)c1=O.Cn1c(=O)c2[nH]cnc2n(C)c1=O.NCCN [AMINOPHYLLINE]
No. of guinea pigs protected [25]: 4

CN(C)CCNC(=O)N1CCN(c2ccccc2F)CC1
Change [7]: -37%

CN(C)CCNC(=O)N1CCN(c2ccc(C#N)cc2)CC1
Change [26]: -31%

CN(C)CCNC(=O)N1CCN(c2ccc(N(C)C)cc2)CC1
Change [27]: -29%

CN(C)C(=O)N1CCN(c2ccccc2)CC1
Change [5]: -24%

CN(C)CCNC(=O)N1CCN(c2ccccc2)CC1
Change [28]: -68%
Change [12]: -22%

COc1cccc(N2CCN(C(=O)NCCN(C)C)CC2)c1
Change [9]: -67%
Change [10]: -36%

O=C(NCCCN1CCOCC1)N1CCN(c2ccccc2)CC1
Change [6]: -28%

COc1ccccc1N1CCN(C(=O)NCCN(C)C)CC1
Change [3]: -21%

CCN(CC)CCNC(=O)N1CCN(c2ccccc2)CC1
Change [29]: -47%

CN1CCN(CCCNC(=O)N2CCN(c3ccccc3)CC2)CC1
Change [30]: -23%

CN(C)CCCNC(=O)N1CCN(c2ccccc2)CC1
Change [3]: -13%

Cc1ccc(N2CCN(C(=O)NCCN(C)C)CC2)cc1
Change [9]: -46%

CN(C)CCNC(=O)N1CCN(c2ccc([N+](=O)[O-])cc2)CC1
Change [31]: -26%

CCN1CCCC(NC(=O)N2CCN(c3ccccc3)CC2)C1 (configuration not stated)
Change [30]: -58%

CN(C)CCN(C)C(=O)N1CCN(c2ccccc2)CC1
Change [9]: -38%

CN(C)CCNC(=O)N1CCN(c2ccccc2Cl)CC1
Change [9]: -53%
Change [12]: -16%

CN(C)CCNC(=O)N1CCN(c2ccc(C(N)=O)cc2)CC1
Change [26]: 0%

CN(C)CCNC(=O)N1CCN(c2ccc(N)cc2)CC1
Change [15]: -22%

CN(CCNC(=O)N1CCN(c2ccccc2)CC1)Cc1ccccc1
Change [23]: -35%

CN(C)CCNC(=O)N1CCN(c2ccccn2)CC1
Change [9]: -54%
Change [12]: -13%
